Measurements published in patent publication US8697683B2, “Azetidinyl diamides as monoacylglycerol lipase inhibitors” (Janssen Pharmaceutica, NV, priority 2009, dated 2014).

Each molecule was assayed against T1, MGL (Rattus norvegicus, UniProt Q8R431) (assay: 2-AG Accumulation Assay (rat brain homogenate)). Conditions: compound 1 μM, percent of vehicle 2-AG accumulation.
T1 construct: one g rat brain was homogenized
T1 sequence (Q8R431 1-303): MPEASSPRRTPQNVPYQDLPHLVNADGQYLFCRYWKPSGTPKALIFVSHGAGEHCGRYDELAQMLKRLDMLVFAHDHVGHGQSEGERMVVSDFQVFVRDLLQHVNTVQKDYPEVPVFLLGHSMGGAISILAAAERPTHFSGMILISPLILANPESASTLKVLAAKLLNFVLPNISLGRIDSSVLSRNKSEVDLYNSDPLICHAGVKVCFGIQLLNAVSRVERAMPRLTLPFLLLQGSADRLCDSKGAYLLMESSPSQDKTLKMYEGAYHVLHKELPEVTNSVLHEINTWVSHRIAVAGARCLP
Format: biochemical

Rat Brain 2AG % VehCntrl (%) @1 μM [%]	Compound
1168	O=C(c1ccc(-c2nc(-c3cccc(C(F)(F)F)c3)cs2)cc1)N1CC(N2CCN(C(=O)c3nccs3)CC2)C1 [Cpd 1332]
1475	O=C(c1ccc2c(ccn2-c2cccc(C(F)(F)F)c2)c1)N1CC(N2CCN(C(=O)c3cscn3)CC2)C1 [Cpd 1408, 5-({3-[4-(1,3-Thiazol-4-ylcarbonyl)piperazin-1-yl]azetidin-1-yl}carbonyl)-1-[3-(trifluoromethyl)phenyl]-1H-indole]
1373	O=C(c1ccc(OCc2ccc3ccccc3n2)cc1)N1CC(N2CCN(C(=O)c3nccs3)CC2)C1 [Cpd 967]
1008	Cc1cn(-c2ccccc2)c2ccc(C(=O)N3CC(N4CCN(C(=O)c5nccs5)CC4)C3)cc12 [Cpd 1054]
1623	O=C(c1ccc2nc(-c3cccc(C(F)(F)F)c3)oc2c1)N1CC(N2CCN(C(=O)c3nccs3)CC2)C1 [Cpd 1158, 6-({3-[4-(1,3-Thiazol-2-ylcarbonyl)piperazin-1-yl]azetidin-1-yl}carbonyl)-2-[3-(trifluoromethyl)phenyl]-1,3-benzoxazole]
1027	O=C(c1ccc2c(c1)CCN(Cc1cccc(C(F)(F)F)c1)C2)N1CC(N2CCN(C(=O)c3nccs3)CC2)C1 [Cpd 879]
1207	O=C(c1ccc2c(c1)CCN(S(=O)(=O)c1ccc(C(F)(F)F)cc1)C2)N1CC(N2CCN(C(=O)c3nccs3)CC2)C1 [Cpd 928]
1207	O=C(c1nccs1)N1CCN(C2CN(C(=O)c3sc4cc(C(F)(F)F)ccc4c3F)C2)CC1 [Cpd 895, 1-(1-{[3-Fluoro-6-(trifluoromethyl)-1-benzothiophen-2-yl]carbonyl}azetidin-3-yl)-4-(1,3-thiazol-2-ylcarbonyl)piperazine]
1259	Cn1cc(-c2ccccc2)c2ccc(C(=O)N3CC(N4CCN(C(=O)c5nccs5)CC4)C3)cc21 [Cpd 1132, 1-Methyl-3-phenyl-6-({3-[4-(1,3-thiazol-2-ylcarbonyl)piperazin-1-yl]azetidin-1-yl}carbonyl)-1H-indole]
1116	O=C(c1ccc(Cc2ccc(C(F)(F)F)cc2)cc1)N1CC(N2CCN(C(=O)c3nccs3)CC2)C1 [Cpd 985]
2570	O=C(c1ccc2c(ccn2-c2ccc(C(F)(F)F)cc2)c1)N1CC(N2CCN(C(=O)c3nccs3)CC2)C1 [Cpd 1357, 5-({3-[4-(1,3-Thiazol-2-ylcarbonyl)piperazin-1-yl]azetidin-1-yl}carbonyl)-1-[4-(trifluoromethyl)phenyl]-1H-indole]
1165	Cn1cc(-c2cccc(C(F)(F)F)c2)c2ccc(C(=O)N3CC(N4CCN(C(=O)c5cscn5)CC4)C3)cc21 [Cpd 1084]
1125	Cc1c(Cc2ccc(C(F)(F)F)cc2)cccc1C(=O)N1CC(N2CCN(C(=O)c3nccs3)CC2)C1 [Cpd 1008]
1428	O=C(c1nccs1)N1CCN(C2CN(C(=O)c3ccc4c(ccn4-c4ccc(F)cc4)c3F)C2)CC1 [Cpd 1348, 4-Fluoro-1-(4-fluorophenyl)-5-({3-[4-(1,3-thiazol-2-ylcarbonyl)piperazin-1-yl]azetidin-1-yl}carbonyl)-1H-indole]
1228	O=C(c1ccc2nc(-c3ccccc3)sc2c1)N1CC(N2CCN(C(=O)c3nccs3)CC2)C1 [Cpd 1125, 2-Phenyl-6-({3-[4-(1,3-thiazol-2-ylcarbonyl)piperazin-1-yl]azetidin-1-yl}carbonyl)-1,3-benzothiazole]
1234	Cc1c(C(=O)N2CC(N3CCN(C(=O)c4nccs4)CC3)C2)sc2ccc(C(F)(F)F)cc12 [Cpd 897]

Continued, molecule first:

Compound	Rat Brain 2AG % VehCntrl (%) @1 μM [%]
O=C(c1ccc(CSc2cccc(Cl)c2)cc1)N1CC(N2CCN(C(=O)c3nccs3)CC2)C1 [Cpd 454]	1066
Cc1cc(-c2cccc(C(F)(F)F)c2)ccc1C(=O)N1CC(N2CCN(C(=O)c3nccs3)CC2)C1 [Cpd 239, 1-(1-{[3-Methyl-3′-(trifluoromethyl)biphenyl-4-yl]carbonyl}azetidin-3-yl)-4-(1,3-thiazol-2-ylcarbonyl)piperazine]	1097
O=C(c1nccs1)N1CCN(C2CN(C(=O)c3sc4cc(-c5ccccc5)ccc4c3Cl)C2)CC1 [Cpd 343, 1-{1-[(3-Chloro-6-phenyl-1-benzothiophen-2-yl)carbonyl]azetidin-3-yl}-4-(1,3-thiazol-2-ylcarbonyl)piperazine]	1371
O=C(c1ccc2nc(N3CCC(F)(F)CC3)sc2c1)N1CC(N2CCN(C(=O)c3nccs3)CC2)C1 [Cpd 671]	1035
O=C(c1ccc(-c2cccc(C(F)(F)F)c2)cc1)N1CC(N2CCN(C(=O)c3nccs3)CC2)C1 [Cpd 237, 1-(1,3-Thiazol-2-ylcarbonyl)-4-(1-{[3′-(trifluoromethyl)biphenyl-4-yl]carbonyl}azetidin-3-yl)piperazine]	1044

Same assay, conditions: compound 10 μM, percent of vehicle 2-AG accumulation

Rat Brain 2AG % VehCntrl (%) @10 μM [%]	Compound
1775	CC1(C)CCC(C)(C)c2cc(CCC(=O)N3CC(N4CCN(C(=O)c5nccs5)CC4)C3)ccc21 [Cpd 282, 1-{1-[3-(5,5,8,8-Tetramethyl-5,6,7,8-tetrahydronaphthalen-2-yl)propanoyl]azetidin-3-yl}-4-(1,3-thiazol-2-ylcarbonyl)piperazine]
1629	O=C(c1ccc(SCc2ccc(Cl)cc2)cc1)N1CC(N2CCN(C(=O)c3nccs3)CC2)C1 [Cpd 415]
1026	O=C(c1ccc(-c2ccccc2)cc1)N1CC(N2CCN(C(=O)c3nccs3)CC2)C1 [Cpd 9, 1-[1-(Biphenyl-4-ylcarbonyl)azetidin-3-yl]-4-(1,3-thiazol-2-ylcarbonyl)piperazine]
1693	O=C(c1ccc(SCc2cccc(Cl)c2Cl)cc1)N1CC(N2CCN(C(=O)c3nccs3)CC2)C1 [Cpd 413, 1-[1-({4-[(2,3-Dichlorobenzyl)sulfanyl]phenyl}carbonyl)azetidin-3-yl]-4-(1,3-thiazol-2-ylcarbonyl)piperazine]
1180	O=C(c1ccc(-c2ccc(Cl)c(Cl)c2)cc1)N1CC(N2CCN(C(=O)c3nccs3)CC2)C1 [Cpd 175, 1-{1-[(3′,4′-Dichlorobiphenyl-4-yl)carbonyl]azetidin-3-yl}-4-(1,3-thiazol-2-ylcarbonyl)piperazine]
1104	O=C(c1ccc(-c2ccc(C(F)(F)F)cc2)cc1)N1CC(N2CCN(C(=O)c3nccs3)CC2)C1 [Cpd 150, 1-(1,3-Thiazol-2-ylcarbonyl)-4-(1-{[4′-(trifluoromethyl)biphenyl-4-yl]carbonyl}azetidin-3-yl)piperazine]
1353	Cc1cc(-c2cccc(C(F)(F)F)c2)ccc1C(=O)N1CC(N2CCN(C(=O)c3nccs3)CC2)C1 [Cpd 239, 1-(1-{[3-Methyl-3′-(trifluoromethyl)biphenyl-4-yl]carbonyl}azetidin-3-yl)-4-(1,3-thiazol-2-ylcarbonyl)piperazine]
1591	O=C(c1ccc(OCc2cccc(Cl)c2Cl)c(F)c1)N1CC(N2CCN(C(=O)c3nccs3)CC2)C1 [Cpd 405, 1-[1-({4-[(2,3-Dichlorobenzyl)oxy]-3-fluorophenyl}carbonyl)azetidin-3-yl]-4-(1,3-thiazol-2-ylcarbonyl)piperazine]
1500	O=C(c1ccc(-c2ccc3ccccc3c2)cc1)N1CC(N2CCN(C(=O)c3nccs3)CC2)C1 [Cpd 182, 1-{1-[(4-Naphthalen-2-ylphenyl)carbonyl]azetidin-3-yl}-4-(1,3-thiazol-2-ylcarbonyl)piperazine]
1090	O=C(c1ccc(-c2cccc([N+](=O)[O-])c2)cc1)N1CC(N2CCN(C(=O)c3nccs3)CC2)C1 [Cpd 183, 1-{1-[(3′-Nitrobiphenyl-4-yl)carbonyl]azetidin-3-yl}-4-(1,3-thiazol-2-ylcarbonyl)piperazine]
1261	N#CC=Cc1cccc(-c2ccc(C(=O)N3CC(N4CCN(C(=O)c5nccs5)CC4)C3)cc2)c1 [Cpd 223, 3-[4′-({3-[4-(1,3-Thiazol-2-ylcarbonyl)piperazin-1-yl]azetidin-1-yl}carbonyl)biphenyl-3-yl]prop-2-enenitrile]
1099	O=C(c1ccc(-c2cccc(Cl)c2)cc1)N1CC(N2CCN(C(=O)c3nccs3)CC2)C1 [Cpd 162, 1-{1-[(3′-Chlorobiphenyl-4-yl)carbonyl]azetidin-3-yl}-4-(1,3-thiazol-2-ylcarbonyl)piperazine]
1076	O=C(c1ccc(OCc2ccc(Cl)c(Cl)c2)c(F)c1)N1CC(N2CCN(C(=O)c3nccs3)CC2)C1 [Cpd 400, 1-[1-({4-[(3,4-Dichlorobenzyl)oxy]-3 fluorophenyl}carbonyl)azetidin-3-yl]-4-(1,3-thiazol-2-ylcarbonyl)piperazine]
1172	CN(C)S(=O)(=O)Nc1cccc(-c2ccc(C(=O)N3CC(N4CCN(C(=O)c5ccccc5)CC4)C3)cc2)c1 [Cpd 205, N,N-Dimethyl-N′-[4′-({3-[4-(phenylcarbonyl)piperazin-1-yl]azetidin-1-yl}carbonyl)biphenyl-3-yl]sulfamide]
1236	O=C(c1ccc(-c2ccc3c(c2)OCO3)cc1)N1CC(N2CCN(C(=O)c3nccs3)CC2)C1 [Cpd 181, 1-(1-{[4-(1,3-Benzodioxol-5-yl)phenyl]carbonyl}azetidin-3-yl)-4-(1,3-thiazol-2-ylcarbonyl)piperazine]
2005	O=C(c1cc2c(C(F)(F)F)cccc2s1)N1CC(N2CCN(C(=O)c3nccs3)CC2)C1 [Cpd 327, 1-(1,3-Thiazol-2-ylcarbonyl)-4-(1-{[4-(trifluoromethyl)-1-benzothiophen-2-yl]carbonyl}azetidin-3-yl)piperazine]
1182	O=C(c1ccc(-c2cccc(C(F)(F)F)c2)cc1)N1CC(N2CCN(C(=O)c3nccs3)CC2)C1 [Cpd 237, 1-(1,3-Thiazol-2-ylcarbonyl)-4-(1-{[3′-(trifluoromethyl)biphenyl-4-yl]carbonyl}azetidin-3-yl)piperazine]
1280	N#Cc1cccc(-c2ccc(C(=O)N3CC(N4CCN(C(=O)c5nccs5)CC4)C3)cc2)c1 [Cpd 161, 4′-({3-[4-(1,3-Thiazol-2-ylcarbonyl)piperazin-1-yl]azetidin-1-yl}carbonyl)biphenyl-3-carbonitrile]
